# Source: PMC8578635 (Nature Communications, 2021)
# Tests used:
# [1] = target: T1, TOP2A (Homo sapiens, UniProt P11388); assay: kDNA decatenation and pBR322 relaxation assays with purified human topoisomerase II; supported by band depletion and RADAR TOP2cc assays in cells; type: biochemical
# [2] = target: T1, TOP2A; assay: kDNA decatenation and pBR322 relaxation assays with purified human topoisomerase II; band depletion in CHP-134 cells; type: biochemical
# [3] = target: topoisomerase II beta (TOP2B) (Homo sapiens, UniProt Q02880); assay: kDNA decatenation and pBR322 relaxation assays with purified human topoisomerase II; type: biochemical
# [4] = target: T1, TOP2A; assay: as above
# T1 sequence (P11388 whole entry): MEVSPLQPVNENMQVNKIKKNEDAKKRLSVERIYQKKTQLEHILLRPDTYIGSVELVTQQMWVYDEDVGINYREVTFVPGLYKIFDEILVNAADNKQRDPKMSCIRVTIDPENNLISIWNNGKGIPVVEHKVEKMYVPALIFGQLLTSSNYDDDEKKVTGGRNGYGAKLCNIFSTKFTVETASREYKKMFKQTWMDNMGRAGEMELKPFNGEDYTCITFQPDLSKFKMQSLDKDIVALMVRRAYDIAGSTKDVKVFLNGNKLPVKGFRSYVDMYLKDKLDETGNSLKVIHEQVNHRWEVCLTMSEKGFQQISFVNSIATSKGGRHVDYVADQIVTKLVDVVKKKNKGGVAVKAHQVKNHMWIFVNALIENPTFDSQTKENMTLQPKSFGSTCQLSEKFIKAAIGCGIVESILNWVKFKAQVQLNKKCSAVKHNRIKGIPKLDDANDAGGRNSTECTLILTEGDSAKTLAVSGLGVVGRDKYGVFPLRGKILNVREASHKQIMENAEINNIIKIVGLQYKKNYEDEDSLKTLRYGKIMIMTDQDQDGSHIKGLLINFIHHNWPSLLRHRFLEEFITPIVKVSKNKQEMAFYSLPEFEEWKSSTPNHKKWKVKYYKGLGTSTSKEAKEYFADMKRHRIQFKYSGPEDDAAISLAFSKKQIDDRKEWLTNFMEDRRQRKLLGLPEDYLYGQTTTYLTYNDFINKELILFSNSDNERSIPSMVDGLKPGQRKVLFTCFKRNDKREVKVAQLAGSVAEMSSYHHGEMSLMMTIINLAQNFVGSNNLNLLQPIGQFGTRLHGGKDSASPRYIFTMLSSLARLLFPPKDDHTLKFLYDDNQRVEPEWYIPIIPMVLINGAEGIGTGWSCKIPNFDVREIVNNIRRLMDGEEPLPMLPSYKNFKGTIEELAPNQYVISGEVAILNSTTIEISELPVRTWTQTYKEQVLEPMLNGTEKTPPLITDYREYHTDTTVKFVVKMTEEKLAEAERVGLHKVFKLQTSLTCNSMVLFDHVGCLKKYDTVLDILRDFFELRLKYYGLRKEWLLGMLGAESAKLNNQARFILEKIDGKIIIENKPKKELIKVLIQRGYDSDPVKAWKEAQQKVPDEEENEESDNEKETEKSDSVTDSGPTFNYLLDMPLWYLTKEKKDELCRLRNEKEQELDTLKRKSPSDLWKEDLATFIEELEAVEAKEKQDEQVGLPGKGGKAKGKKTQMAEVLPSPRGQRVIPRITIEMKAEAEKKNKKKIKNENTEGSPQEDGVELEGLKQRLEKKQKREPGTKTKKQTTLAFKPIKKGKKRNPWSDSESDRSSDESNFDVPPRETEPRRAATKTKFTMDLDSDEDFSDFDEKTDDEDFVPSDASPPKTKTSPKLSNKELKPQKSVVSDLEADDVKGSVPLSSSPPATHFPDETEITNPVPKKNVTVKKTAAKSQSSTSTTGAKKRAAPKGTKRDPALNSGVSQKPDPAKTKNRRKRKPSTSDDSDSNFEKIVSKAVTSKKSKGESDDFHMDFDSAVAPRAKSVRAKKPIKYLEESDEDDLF
# topoisomerase II beta (TOP2B), sequence (Q02880 2-1626): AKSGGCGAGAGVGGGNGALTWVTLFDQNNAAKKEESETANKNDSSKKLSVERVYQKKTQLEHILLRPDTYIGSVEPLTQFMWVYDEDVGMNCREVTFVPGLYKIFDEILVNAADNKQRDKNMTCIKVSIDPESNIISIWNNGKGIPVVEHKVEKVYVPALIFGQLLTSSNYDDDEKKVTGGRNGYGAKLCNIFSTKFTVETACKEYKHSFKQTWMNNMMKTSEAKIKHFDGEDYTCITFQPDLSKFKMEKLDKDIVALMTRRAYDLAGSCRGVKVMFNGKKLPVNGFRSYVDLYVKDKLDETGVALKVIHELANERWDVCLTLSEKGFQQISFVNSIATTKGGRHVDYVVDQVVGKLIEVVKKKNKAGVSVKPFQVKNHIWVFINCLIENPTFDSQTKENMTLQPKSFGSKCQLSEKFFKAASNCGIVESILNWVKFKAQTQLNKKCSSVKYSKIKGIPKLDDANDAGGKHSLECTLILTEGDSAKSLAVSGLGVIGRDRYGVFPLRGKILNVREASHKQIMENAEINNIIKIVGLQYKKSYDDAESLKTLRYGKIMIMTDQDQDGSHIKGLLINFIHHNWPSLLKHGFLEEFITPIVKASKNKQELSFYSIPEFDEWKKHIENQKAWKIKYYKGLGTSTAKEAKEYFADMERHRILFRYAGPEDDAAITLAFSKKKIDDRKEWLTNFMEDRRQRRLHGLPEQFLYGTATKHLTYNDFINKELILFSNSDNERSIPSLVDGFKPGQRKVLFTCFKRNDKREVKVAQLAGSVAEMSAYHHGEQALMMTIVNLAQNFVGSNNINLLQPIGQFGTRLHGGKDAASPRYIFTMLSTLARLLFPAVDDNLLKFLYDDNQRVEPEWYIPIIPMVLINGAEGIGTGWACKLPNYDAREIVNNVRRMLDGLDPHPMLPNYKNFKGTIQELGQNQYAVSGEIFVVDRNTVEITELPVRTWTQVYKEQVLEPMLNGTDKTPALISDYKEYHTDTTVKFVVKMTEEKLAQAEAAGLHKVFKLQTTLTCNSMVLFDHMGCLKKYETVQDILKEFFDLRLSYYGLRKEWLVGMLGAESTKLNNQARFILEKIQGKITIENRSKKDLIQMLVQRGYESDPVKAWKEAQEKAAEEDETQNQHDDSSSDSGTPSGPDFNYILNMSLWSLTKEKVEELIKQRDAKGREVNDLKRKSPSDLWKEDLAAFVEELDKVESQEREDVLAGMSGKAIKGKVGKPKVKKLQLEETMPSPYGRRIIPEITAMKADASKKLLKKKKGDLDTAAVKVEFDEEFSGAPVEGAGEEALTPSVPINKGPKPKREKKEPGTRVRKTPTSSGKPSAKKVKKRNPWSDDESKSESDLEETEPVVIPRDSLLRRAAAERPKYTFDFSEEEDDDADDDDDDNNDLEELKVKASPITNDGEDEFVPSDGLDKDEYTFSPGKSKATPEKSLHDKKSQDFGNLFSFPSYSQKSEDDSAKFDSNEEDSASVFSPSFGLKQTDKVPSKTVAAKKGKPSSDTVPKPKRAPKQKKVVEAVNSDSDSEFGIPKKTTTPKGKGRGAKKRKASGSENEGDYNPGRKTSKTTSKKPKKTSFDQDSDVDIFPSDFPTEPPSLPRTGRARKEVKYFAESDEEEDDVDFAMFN
structure (smiles),measurement,setting,value
Cc1cnc(CNC(=O)c2c(=O)c3ccc(N4CCCN(C)CC4)nc3n3c2sc2ccccc23)cn1 [CX-5461],kDNA decatenation and pBR322 relaxation assays with purified human topoisomerase,[1],CX-5461 inhibited the activity of both TOP2A and TOP2B—strikingly at concentrations substantially lower than etoposide
COc1cccc2c1C(=O)c1c(O)c3c(c(O)c1C2=O)C[C@@](O)(C(=O)CO)C[C@@H]3O[C@H]1C[C@H](N)[C@H](O)[C@H](C)O1 [doxorubicin],kDNA decatenation and pBR322 relaxation assays with purified human topoisomerase,[2],Etoposide and doxorubicin had similar activity against both paralogs.
COc1cc([C@@H]2c3cc4c(cc3[C@@H](O[C@@H]3O[C@@H]5CO[C@@H](C)O[C@H]5[C@H](O)[C@H]3O)[C@H]3COC(=O)[C@H]23)OCO4)cc(OC)c1O [etoposide],kDNA decatenation and pBR322 relaxation assays with purified human topoisomerase,[3],Etoposide and doxorubicin had similar activity against both paralogs.
same,kDNA decatenation and pBR322 relaxation assays with purified human topoisomerase,[4],Etoposide and doxorubicin had similar activity against both paralogs.
